Results reported in patent publication US5759577A, “Controlled release of steroids from sugar coatings” (American Home Products Corporation, priority 1996, dated 1998).

Columns and labels:
[1] = in vitro dissolution of medrogestone, USP XX <711> Apparatus 2, 50 r.p.m.; format: physicochemical; settings: sugar coat containing 0.4% microcrystalline cellulose versus conventional tablet
Protocol: A sugar coating containing 5 mg of medrogestone in a matrix of sucrose with 0.4% microcrystalline cellulose and 0.5% polyvinyl pyrrolidone was applied to a sealed and sugar-coated tablet core.

[2] = in vitro dissolution of steroid, Method A (USP XX <711> Apparatus 2, 50 rpm); format: physicochemical; settings: Examples 1-3, Methods A, B and C, no microcrystalline cellulose
Source text: CV represents the coefficient of variation between these trials expressed as a percentage.

Row | Compound | dissolution of medrogestone (in words) [1] | release from the sugar coating (in words) [2]
1 | CC(=O)[C@@]1(C)CC[C@H]2[C@@H]3C=C(C)C4=CC(=O)CC[C@]4(C)[C@H]3CC[C@@]21C [medrogestone] | dramatic effect of reduced dissolution | –
2 | CC(=O)O[C@]1(C(C)=O)CC[C@H]2[C@@H]3C[C@H](C)C4=CC(=O)CC[C@]4(C)[C@H]3CC[C@@]21C [medroxyprogesterone acetate] | – | released from the sugar coating extremely rapidly
